# Measurements from patent US9034323B2, “Method for control of post-prandial glucose” (Halozyme, Inc., priority 2008, dated 2015).
# Read-outs that look alike come from different tables or passages of the source.
# B1: Hyal 1: Hyaluronan degrading enzyme; acid-active human hyaluronidase (protein, listed as Homo sapiens)
# chain: MAAHLLPICALFLTLLDMAQGFRGPLLPNRPFTTVWNANTQWCLERHGVDVDVSVFDVVANPGQTFRGPDMTIFYSSQLGTYPYYTPTGEPVFGGLPQNASLIAHLARTFQDILAAIPAPDFSGLAVIDWEAWRPRWAFNWDTKDIYRQRSRALVQAQHPDWPAPQVEAVAQDQFQGAARAWMAGTLQLGRALRPRGLWGFYGFPDCYNYDFLSPNYTGQCPSGIRAQNDQLGWLWGQSRALYPSIYMPAVLEGTGKSQMYVQHRVAEAFRVAVAAGDPNLPVLPYVQIFYDTTNHFLPLDELEHSLGESAAQGAAGVVLWVSWENTRTKESCQAIKEYMDTTLGPFILNVTSGALLCSQALCSGHGRCVRRTSHPKALLLLNPASFSIQLTPGGGPLSLRGALSLEDQAQMAVEFKCRCYPGWQAPWCERKSMW
# modifications: Hyaluronidase-1 [Precursor]
# B2: Hyal I (protein, UniProt Q12794 22-435, looked up)
# Hyaluronidase-1: FRGPLLPNRPFTTVWNANTQWCLERHGVDVDVSVFDVVANPGQTFRGPDMTIFYSSQLGTYPYYTPTGEPVFGGLPQNASLIAHLARTFQDILAAIPAPDFSGLAVIDWEAWRPRWAFNWDTKDIYRQRSRALVQAQHPDWPAPQVEAVAQDQFQGAARAWMAGTLQLGRALRPRGLWGFYGFPDCYNYDFLSPNYTGQCPSGIRAQNDQLGWLWGQSRALYPSIYMPAVLEGTGKSQMYVQHRVAEAFRVAVAAGDPNLPVLPYVQIFYDTTNHFLPLDELEHSLGESAAQGAAGVVLWVSWENTRTKESCQAIKEYMDTTLGPFILNVTSGALLCSQALCSGHGRCVRRTSHPKALLLLNPASFSIQLTPGGGPLSLRGALSLEDQAQMAVEFKCRCYPGWQAPWCERKSMW
# Key:
# blood glucose = experiment: Blood glucose levels in mice after intradermal Humulin insulin with hyaluronan degrading enzymes (Example 9); type: in vivo, NCr nu/nu homozygous mice; conditions: for Blood Glucose Level: group mean
# Procedure: (§1) The ability of different hyaluronan degrading enzymes to act as a dispersion agent was assessed in vivo. A dispersion assay in mice was used to assess the ability of different hyaluronan degrading enzyme to act as dispersion agents of trypan blue, and also to assess the ability of the enzymes to enhance the efficacy of co-administered insulin in reducing blood glucose levels. The hyaluronan degrading enzymes assayed included rHuPH20, pegylated PH20 (PEG PH20), Hyal 1, Chondroitinase ABC, Chondroitinase AC and Streptomyces hyalurolyticus lyase. […] Both the area of dispersion of the trypan blue and the blood glucose levels were then measured. […] The ability of a low pH buffer (pH 4.5) to act as a dispersion agent also was examined.
# (§2) Nine groups of NCr nu/nu homozygous mice, approximately 10 weeks of age and with body weights of 21-25 g, with 3 mice per group, were anesthetized by intraperitoneal injection of ketamine/xylazine (10:1 mixture in saline). […] The dispersion of the trypan blue dye was then measured by a caliper at 2.5, 5, 10, 15 and 20 minutes post injection. The dye dispersion area (mm^2) was calculated by multiplying the longest axis M1 (length of the dye front) and M2 (width of the dye front) by ¼π (M1M2×¼π). The blood glucose levels were measured using a glucometer at 0, 5, 10, 15 and 20 minutes
# [1] = test system: dispersion of trypan blue dye; experiment: Trypan blue dye dispersion assay in mice (Example 9); type: in vivo, NCr nu/nu homozygous mice; conditions: for Dye Dispersion Areas: intradermal, trypan blue with 5 Units/mL Humulin insulin, enzyme 10 U/mL (Chondroitinase AC 1 U/mL, Strep lyase 100 U/mL), group mean; for increase in dye dispersion area compared to buffer only: mixed with trypan blue and Humulin insulin
# Procedure: as §1, §2
# [2] = test system: plasma glucose (glucose infusion rate to maintain 90-110 mg/dL); experiment: Glucose infusion rate (GIR) pharmacodynamics, Hyperinsulinemic-Euglycemic Clamp (Example 1a); type: in vivo, human; conditions: Mean
# Procedure: The procedure consisted of initially obtaining the subject's weight and height and measuring the vital signs after resting in a sitting position for 5 minutes. Both arms were placed in heating pads to dilate the veins and IV catheters were then inserted. A catheter was placed into the antecubital vein of one arm for infusion of Dextrose 20% via two separate stop cocks. The other […] catheter was placed into the other arm for sampling of arterialized blood for glucose measurements. The heating pad can be removed from the glucose infusion site, but the retrograde catheter site was maintained at 65° C. An initial blood sample was obtained to measure baseline glucose 30 minutes before injection of the insulin preparations.
# [3] = parameters: species or system Yucatan mini pigs; conditions: pig, in vivo; for tmax: sc
# Procedure: The pharmacokinetics (PK) of regular insulin, when subcutaneously administered at two different concentrations, both alone and co-administered with rHuPH20, was assessed in the porcine model described in Example 10, above. A multiple dose 4-way crossover design study was conducted to compare the PK of regular insulin at concentrations of 20 and 100 U/mL, when administered alone, to the same two concentrations after co-administration with rHuPH20. In each case, a total of 0.2 U/kg of insulin was administered.
# Four test articles were prepared for dosing. […] The Insulin-PH20 U100 test article contained 3.69 mg/mL (100 U/mL) regular insulin (Lot # SIHR107; Diosynth Biotechnologies) and 20 μg/mL (approximately 2400 U/mL) rHuPH20 in 25 mM Tris, 120 mM NaCl, 0.01% Polysorbate 80, pH 7.3.
# The group assignment was maintained for cycles 1 and 2.
# The serum IRI concentrations were determined for each serum sample by interpolation from a standard curve using StatLIA® assay analysis software (Brendan Technologies, Carlsbad, Calif.). […] These baselines were then subtracted from the actual IRI concentrations measured at each timepoint to determine the baseline-adjusted IRI concentration.
# Serum IRI versus time data were modeled by non-compartmental analysis using WinNonlin Professional model 200 (Version 5.2, Pharsight Corp., Mountain View, Calif.) and the PK parameters calculated. […] All analyses were performed using a mixed model with fixed effects for treatment. A compound symmetric covariance matrix among repeated observations for each animal was assumed. Analyses for Cmax and all AUC endpoints were performed using log-transformed values with values of zero replaced by 1 prior to log transformation (zero on the log scale). The time based endpoints were analyzed on the original linear scale.
# N=16 pigs unless otherwise noted.
# [4] = background, cited from earlier work
# [5] = 5 min post injection, intradermal with 5 Units/mL Humulin insulin, enzyme 10 U/mL (Chondroitinase AC 1 U/mL, Strep lyase 100 U/mL)
# [6] = 10 min post injection, intradermal with 5 Units/mL Humulin insulin, enzyme 10 U/mL (Chondroitinase AC 1 U/mL, Strep lyase 100 U/mL)
# [7] = 15 min post injection, intradermal with 5 Units/mL Humulin insulin, enzyme 10 U/mL (Chondroitinase AC 1 U/mL, Strep lyase 100 U/mL)
# [8] = 20 min post injection, intradermal with 5 Units/mL Humulin insulin, enzyme 10 U/mL (Chondroitinase AC 1 U/mL, Strep lyase 100 U/mL)
molecule,measurement,setting,value
Chondroitinase ABC,Blood Glucose Level,blood glucose; 0 min (prior to injection),129.67 mg/dL
same,Blood Glucose Level,blood glucose; [5],123.67 mg/dL
same,Blood Glucose Level,blood glucose; [6],65.00 mg/dL
same,Blood Glucose Level,blood glucose; [7],44.67 mg/dL
same,Blood Glucose Level,blood glucose; [8],21.00 mg/dL
same,reduction of blood glucose levels compared with Humulin insulin alone,blood glucose; co-administered with Humulin insulin,appeared to reduce levels even faster
same,Dye Dispersion Areas,[1]; 5 min post injection,75.06 mm^2
same,average dispersion area of trypan blue dye,[1]; 5 minutes after injection,~75 mm^2
same,Dye Dispersion Areas,[1]; 10 min post injection,78.60 mm^2
same,average dispersion area of trypan blue dye,[1]; 10 minutes after injection,~79 mm^2
same,Dye Dispersion Areas,[1]; 15 min post injection,81.44 mm^2
same,average dispersion area of trypan blue dye,[1]; 15 minutes after injection,~81 mm^2
same,Dye Dispersion Areas,[1]; 20 min post injection,87.85 mm^2
same,average dispersion area of trypan blue dye,[1]; 20 minutes after injection,~88 mm^2
same,average dispersion area of trypan blue dye,[1]; […] after injection,about 57 mm^2
same,Dye Dispersion Areas,[1]; […] post injection,56.85 mm^2
same,increase in dye dispersion area compared to buffer only,[1],significant increase
Humalog ® alone,GIR AUC 0-60 min,[2]; Dosing Sequence 1,1910 min * mL/hr
same,GIR AUC 0-120 min,[2]; Dosing Sequence 1,9860 min * mL/hr
same,GIR AUC 0-180 min,[2]; Dosing Sequence 1,20700 min * mL/hr
same,GIR AUC 0-240 min,[2]; Dosing Sequence 1,32580 min * mL/hr
same,GIR AUC 0-360 min,[2]; Dosing Sequence 1,51650 min * mL/hr
same,tmax,[2]; Dosing Sequence 1,185
same,GIR AUC 0-60 min,[2]; Dosing Sequence 2,2260 min * mL/hr
same,GIR AUC 0-120 min,[2]; Dosing Sequence 2,9670 min * mL/hr
same,GIR AUC 0-180 min,[2]; Dosing Sequence 2,19220 min * mL/hr
same,GIR AUC 0-240 min,[2]; Dosing Sequence 2,29120 min * mL/hr
same,GIR AUC 0-360 min,[2]; Dosing Sequence 2,44730 min * mL/hr
same,tmax,[2]; Dosing Sequence 2,200
same,GIR AUC 0-60 min,[2]; Dosing Sequence all,2080 min * mL/hr
same,GIR AUC 0-120 min,[2]; Dosing Sequence all,9760 min * mL/hr
same,GIR AUC 0-180 min,[2]; Dosing Sequence all,19960 min * mL/hr
same,GIR AUC 0-240 min,[2]; Dosing Sequence all,30850 min * mL/hr
same,GIR AUC 0-360 min,[2]; Dosing Sequence all,48190 min * mL/hr
same,tmax,[2]; Dosing Sequence all,193
Insulin 20 U,tmax,[3],0.95 ± 0.7 h
Insulin 100 U,tmax,[3],1.07 ± 0.817 h
Insulin U20: Humulin R insulin diluted 1:5 with sterile diluent to 20 U/mL,AUC0-15,[3],80 pmol·min/L
same,AUC0-30,[3],791 pmol·min/L
same,AUClast,[3],"20,820 pmol×min/L"
same,tmax,[3],0.95 h
"Insulin U100: Undiluted Humulin R insulin, 100 U/mL",AUC0-15,[3],20 pmol·min/L
same,AUC0-30,[3],222 pmol·min/L
same,AUClast,[3],"9,021 pmol×min/L"
same,tmax,[3],1.07 h
"detemir: Long-lasting insulin, an analog",Duration,[4],28 h
same,Onset,[4],4 to 6 h
same,Peak,[4],18 to 28 h
insulin glargine,Duration,[4],28 h
same,Onset,[4],4 to 6 h
same,Peak,[4],18 to 28 h
insulin glulisine,Duration,[4],3 to 4 h
same,Peak,[4],0.75 to 1.5 h
same,Onset,[4]; subcutaneous insulin,0.083 to 0.25 h
B1,increase in dye dispersion area compared to buffer only,[1],no statistically significant increase
B2,Blood Glucose Level,blood glucose; 0 min (prior to injection),155.67 mg/dL
same,Blood Glucose Level,blood glucose; [5],201.33 mg/dL
same,Blood Glucose Level,blood glucose; [6],144.33 mg/dL
same,Blood Glucose Level,blood glucose; [7],77.00 mg/dL
same,Blood Glucose Level,blood glucose; [8],52.67 mg/dL
same,Dye Dispersion Areas,[1]; 5 min post injection,36.27 mm^2
same,Dye Dispersion Areas,[1]; 10 min post injection,39.60 mm^2
same,Dye Dispersion Areas,[1]; 15 min post injection,46.41 mm^2
same,Dye Dispersion Areas,[1]; 20 min post injection,48.21 mm^2
same,Dye Dispersion Areas,[1]; […] post injection,31.53 mm^2
